Marks after values point to notes of the source that are not given here.
Key:
Assay type in all cases: cell-based
[1] = system: human oral keratinocytes (HOK-18A); experiment: Inflammatory mediator gene expression in keratinocytes exposed to substrate-treated biofilms (SYBR RT-qPCR); conditions: relative to control, n = 3
Procedure: Cultures of immortalized human oral keratinocytes (HOK-18A) are grown. […] The IL-8 levels in the cellular supernatant are determined as well. RNA is converted to cDNA and relative expression of inflammatory mediator genes is determined as described above with respect to the cellular housekeeping gene β-actin.
In HOKs exposed to substrate-treated (substrate concentrations of […]) multi-species biofilms, there are mostly decreases in inflammatory mediator gene expression as measured via SYBR RT-qPCR, the results of which are detailed in Table 7:
Fold changes in inflammatory mediator gene expression from human oral keratinocytes (HOK-18A) exposed to substrate-treated multi-species biofilms are determined relatively to the control through the 2^^-ΔΔCt method and are shown as the geometric mean (C.I.) (n = 3) of the 2^^-ΔΔCt values. All substrates are dissolved in PBS at a concentration of 1 M (upper part) or 1%(w/v) (lower part). Values between 0 and 1 represent relative downregulation, values >1 represent relative upregulation.

[2] = system: A. actinomycetemcomitans virulence genes; experiment: Virulence gene expression in multi-species biofilm (SYBR RT-qPCR)
Procedure: (§1) Biofilms are grown vertically on Calcium Deficient Hydroxyapatite (CAD-HA) disks (Hitemco Medical, Old Bethpage, USA) using the Amsterdam Active Adhesion model. Biofilms are allowed to establish during 24 h (37° C., 170 rpm) under microaerophilic conditions (6% O2, 7% CO2, 7% H2, 80% N2). After this 24 h, disks are rinsed 3 times a day for 3 minutes (RT, 250 rpm), for 3 consecutive days, by transferring the lid containing the disks to a new 24-well plate containing 2 mL/well of the appropriate substrate solution. As a negative control, PBS (pH 5.7) without substrate supplementation is used.
(§2) The virulence of the substrate-treated multi-species biofilms are evaluated by analyzing the relative expression of 33 genes that are recognized as being related to some form of virulence and from 4 periodontal pathogens.
(§3) Expression of bacterial virulence genes is analyzed through SYBR RT-qPCR and normalized for bacterial housekeeping gene expression. […] These effects are illustrated in Tables 6a and 6b:
(§4) Note, for Tables 6a and 6b, that fold changes in virulence gene expression are determined relative to the control condition through the 2^^-ΔΔCt method and are shown as the geometric mean (C.I.) (n = 3) of the 2^^-ΔΔ ^Ct values. All substrates are dissolved in PBS at a concentration of 1 M (upper part) or 1%(w/v) (lower part). Values between 0 and 1 represent relative downregulation, values >1 represent relative upregulation. […] NADG: N-acetyl-D-glucosamine; C.I.: 95% confidence interval.

[3] = system: P. gingivalis virulence genes; experiment: as above; conditions: relative to control, 2^-ΔΔCt, n = 3
Procedure: as §1, §2, §3, §4

[4] = system: F. nucleatum virulence genes; experiment: as above; conditions: relative to control = 1, 2^-ΔΔCt, n = 3
Procedure: as §1, §2, §3
as §4, with “Table 6c,” for “Tables 6a and 6b, that”, “2^^-ΔΔCt” for “2^^-ΔΔ ^Ct”

[5] = system: multi-species biofilm (beneficial/commensal species, periodontal pathogens, cariogenic pathogens); experiment: Multi-species biofilm composition, relative proportions and group changes
Procedure: Biofilms are grown vertically on Calcium Deficient Hydroxyapatite (CAD-HA) disks (Hitemco Medical, Old Bethpage, USA) using the Amsterdam Active Adhesion model. […] After this 24 h, disks are rinsed 3 times a day for 3 minutes (RT, 250 rpm), for 3 consecutive days, by transferring the lid containing the disks to a new 24-well plate containing 2 mL/well of the appropriate substrate solution. As a negative control, PBS (pH 5.7) without substrate supplementation is used. N-acetyl-D-glucosamine (NADG), α-D-lactose, D-(+)-trehalose and D-(+)-raffinose are selected to determine their effects on multi-species biofilm composition. Repeated rinsing of the biofilms with the substrates at a concentration of 1 M results in a significant decrease in absolute numbers in at least four of the pathogenic bacterial species tested in the assay, in comparison to the control, the results of which are described in Table 1 below. Note, NADG decreased absolute numbers of S. sobrinus. Absolute abundances of bacterial species are shown as mean ± SD (n = 3) logarithmic values of the genome equivalents per millilitre (log(Geq/mL)).

[6] = HOK-18A exposed to biofilms treated with substrate 1% (w/v)
[7] = HOK-18A exposed to biofilms treated with substrate 1 M
[8] = lower part of Table 6a, substrate 1%(w/v), relative to control = 1
[9] = substrate 1 M, relative to control = 1, 2^-ΔΔCt, n = 3
[10] = Table 1a, substrate 1 M, listed as D-(+)-raffinose
[11] = Table 3, separate experiments, concentration not given

OC[C@H]1O[C@H](OC[C@H]2O[C@H](O[C@]3(CO)O[C@H](CO)[C@@H](O)[C@@H]3O)[C@H](O)[C@@H](O)[C@@H]2O)[C@H](O)[C@@H](O)[C@H]1O [D-raffinose, D-(+)-raffinose]
fold change in IL-1β gene expression, geometric mean (C.I.) [1, 6]: 0.93 (0.56-1.55) fold | fold change in IL-6 gene expression, geometric mean (C.I.) [1, 6]: 0.70 (0.44-1.13)^∗ fold | fold change in IL-8 gene expression, geometric mean (C.I.) [1, 6]: 1.08 (0.73-1.59) fold | fold change in MMP-8 gene expression, geometric mean (C.I.) [1, 6]: 0.71 (0.38-1.35) fold | fold change in TNF-α gene expression, geometric mean (C.I.) [1, 6]: 0.77 (0.55-1.08) fold | fold change in IL-1β gene expression, geometric mean (C.I.) [1, 7]: 0.8 (0.44-1.46) fold | fold change in IL-6 gene expression, geometric mean (C.I.) [1, 7]: 0.54 (0.17-1.72) fold | fold change in IL-8 gene expression, geometric mean (C.I.) [1, 7]: 0.10 (0.04-0.29)^∗ fold | fold change in MMP-8 gene expression, geometric mean (C.I.) [1, 7]: 0.85 (0.61-1.19) fold | fold change in TNF-α gene expression, geometric mean (C.I.) [1, 7]: 0.66 (0.56-0.78)^∗ fold | fold change in aae expression, geometric mean (95% C.I.) [2, 8]: 1.34 (0.38-4.68) fold | fold change in apaH expression, geometric mean (95% C.I.) [2, 8]: 0.91 (0.48-1.73) fold | fold change in cdtB expression, geometric mean (95% C.I.) [2, 8]: 0.73 (0.16-3.39) fold | fold change in emaA expression, geometric mean (95% C.I.) [2, 8]: 0.59 (0.13-2.77) fold | fold change in flp expression, geometric mean (95% C.I.) [2, 8]: 0.89 (0.40-1.99) fold | fold change in ltxA expression, geometric mean (95% C.I.) [2, 8]: 0.30 (0.12-0.79) fold | fold change in omp29 expression, geometric mean (95% C.I.) [2, 8]: 0.87 (0.26-2.87) fold | fold change in omp100 expression, geometric mean (95% C.I.) [2, 8]: 0.31 (0.09-1.08)^∗ fold | fold change in orf859 expression, geometric mean (95% C.I.) [2, 8]: 1.66 (0.86-3.20) fold | fold change in pgA expression, geometric mean (95% C.I.) [2, 8]: 0.99 (0.38-2.55) fold | fold change in vapA expression, geometric mean (95% C.I.) [2, 8]: 1.14 (0.40-3.20) fold | fold change in vppA expression, geometric mean (95% C.I.) [2, 8]: 1.08 (0.53-2.18) fold | fold change in aae expression, geometric mean (95% C.I.) [2, 9]: 0.16 (0.05-0.47)^∗ fold | fold change in apaH expression, geometric mean (95% C.I.) [2, 9]: 0.11 (0.02-0.73)^∗ fold | fold change in cdtB expression, geometric mean (95% C.I.) [2, 9]: 0.07 (0.02-0.25)^∗ fold | fold change in emaA expression, geometric mean (95% C.I.) [2, 9]: 0.09 (0.03-0.29)^∗ fold | fold change in flp expression, geometric mean (95% C.I.) [2, 9]: 0.45 (0.17-1.22) fold | fold change in ltxA expression, geometric mean (95% C.I.) [2, 9]: 0.01 (0.01-0.03)^∗ fold | fold change in omp29 expression, geometric mean (95% C.I.) [2, 9]: 1.37 (0.34-5.47) fold | fold change in omp100 expression, geometric mean (95% C.I.) [2, 9]: 0.09 (0.02-0.43)^∗ fold | fold change in orf859 expression, geometric mean (95% C.I.) [2, 9]: 0.02 (0.01-0.05)^∗ fold | fold change in pgA expression, geometric mean (95% C.I.) [2, 9]: 7.26 (2.09-25.17)^∗ fold | fold change in vapA expression, geometric mean (95% C.I.) [2, 9]: 0.50 (0.13-1.94) fold | fold change in vppA expression, geometric mean (95% C.I.) [2, 9]: 0.05 (0.04-2.42)^∗ fold | fold change in pgA expression, geometric mean (95% C.I.) ([2]; substrate 1 M, relative to control = 1, 2^-ΔΔCt, n = 3, listed as D-(+)-raffinose): 7.3 fold | fold change in fimA expression, geometric mean (95% C.I.) ([3]; substrate 1 % (w/v)): 1.47 (0.92-2.34) fold | fold change in kgp expression, geometric mean (95% C.I.) ([3]; substrate 1 % (w/v)): 1.77 (0.74-4.21) fold | fold change in partC expression, geometric mean (95% C.I.) ([3]; substrate 1 % (w/v)): 0.54 (0.26-1.12) fold | fold change in rgpA expression, geometric mean (95% C.I.) ([3]; substrate 1 % (w/v)): 1.42 (1.12-1.80) fold | fold change in fimA expression, geometric mean (95% C.I.) ([3]; substrate 1 M): 0.03 (0.00-0.16)* fold | fold change in kgp expression, geometric mean (95% C.I.) ([3]; substrate 1 M): <LOD | fold change in partC expression, geometric mean (95% C.I.) ([3]; substrate 1 M): 0.02 (0.00-0.12)^∗ fold | fold change in rgpA expression, geometric mean (95% C.I.) ([3]; substrate 1 M): 0.01 (0.00-0.10)^∗ fold | fold change in ABC transp. perm. (ABC transporter permease) expression, geometric mean (95% C.I.) ([4]; substrate 1% (w/v)): 0.17 (0.04-0.65)^∗ fold | fold change in EF-G expression, geometric mean (95% C.I.) ([4]; substrate 1% (w/v)): 0.12 (0.04-0.33)^∗ fold | fold change in but. -coA transf. (butyrate-acetoacetate CoA-transferase) expression, geometric mean (95% C.I.) ([4]; substrate 1% (w/v)): 0.47 (0.06-3.98) fold | fold change in hemin receptor expression, geometric mean (95% C.I.) ([4]; substrate 1% (w/v)): 0.12 (0.09-0.15)^∗ fold | fold change in hemolysin expression, geometric mean (95% C.I.) ([4]; substrate 1% (w/v)): 0.51 (0.16-1.62)^∗ fold | fold change in ompA expression, geometric mean (95% C.I.) ([4]; substrate 1% (w/v)): 0.70 (0.20-2.44) fold | fold change in transposase expression, geometric mean (95% C.I.) ([4]; substrate 1% (w/v)): 0.78 (0.40-1.53) fold | fold change in ABC transp. perm. (ABC transporter permease) expression, geometric mean (95% C.I.) ([4]; substrate 1 M): 41.25 (11.65-146.10)^∗ fold | fold change in EF-G expression, geometric mean (95% C.I.) ([4]; substrate 1 M): 1.41 (0.70-2.83) fold | fold change in but. -coA transf. (butyrate-acetoacetate CoA-transferase) expression, geometric mean (95% C.I.) ([4]; substrate 1 M): 3.95 (0.89-17.60)* fold | fold change in hemin receptor expression, geometric mean (95% C.I.) ([4]; substrate 1 M): 18.04 (7.92-41.14)^∗ fold | fold change in hemolysin expression, geometric mean (95% C.I.) ([4]; substrate 1 M): 2.50 (1.07-5.83)^∗ fold | fold change in ompA expression, geometric mean (95% C.I.) ([4]; substrate 1 M): 1.07 (0.49-2.36) fold | fold change in transposase expression, geometric mean (95% C.I.) ([4]; substrate 1 M): 251.47 (75.27-840.20)^∗ fold | relative proportion of beneficial or commensal species in biofilm ([5]; Table 1a, substrate 1 M): 95.86 (+/- 1.63)^∗ % (Geq/mL) | relative proportion of cariogenic pathogens in biofilm ([5]; Table 1a, substrate 1 M): 1.85 (+/- 0.68) % (Geq/mL) | relative proportion of periodontal pathogens in biofilm ([5]; Table 1a, substrate 1 M): 2.29 (+/- 1.40)^∗ % (Geq/mL) | relative proportion of beneficial or commensal species in biofilm [5, 10]: 95.86±1.63 % (Geq/mL) | relative proportion of cariogenic pathogens in biofilm [5, 10]: 1.85±0.68 % (Geq/mL) | relative proportion of periodontal pathogens in biofilm [5, 10]: 2.29±1.40 % (Geq/mL) | relative proportion of beneficials/commensals in biofilm [5, 11]: 64.27 (+/- 1.84) % (Geq/mL) | relative proportion of cariogenic pathogens in biofilm [5, 11]: 0.27 (+/- 0.09) % (Geq/mL) | relative proportion of periodontal pathogens in biofilm [5, 11]: 35.46 (+/- 1.82) % (Geq/mL)

— patent publication US20230346670A1, “Prebiotic Oral Care Compositions and Methods” (Colgate-Palmolive Company, priority 2020, published 2023)
